Results: patent publication US9549886B2, “Personal care formulations containing alkyl ketal esters and methods of manufacture” (SEGETIS, INC., priority 2010, dated 2017)
Where “and” joins values, the source holds several entries; their conditions need not be identical. Identical values can stand only once. Blank lines part the entries; values can stand above or below the compound they belong to.

Experiments:
[1] = Miscibility of alkyl ketal esters with water and organic compounds; format: physicochemical; details: for dissolves or is miscible with organic compounds to the extent of: organic compounds as listed in the block (alcohols, esters, oils, solvents), 80 parts of the ketal
Protocol: Unless stated otherwise, miscibility is assessed at 25° C.

[2] = Clarity of model hand sanitizer (isopropyl myristate / water / ethanol / ethyl-LGK); format: physicochemical
Text: Thus, a formulation with 30 parts isopropyl myristate, 10 parts water, and 60 parts ethanol was cloudy. […] In either case, the potential for dryness increases due to reduction in emollient or increase in ethanol. […] This formulation retained the balance of emollient and ethanol, while still providing hydration through the presence of water. Alternatively, a portion of the ethanol can be replaced with Et-LGK without sacrificing clarity, even at higher water levels. […] This reduced ethanol formulation was less drying.

[3] = Three-component miscibility test (mixing in a vial at room temperature and shaking, visual clarity)
Text: The term “miscible” and its variations (“miscibility”, “compatibility”, and the like) are used herein as a synonym for “soluble”, i.e., a mixture of the materials by themselves form a “true” solution, in which one material is molecularly dispersed in the other, or in which one material is dispersed as droplets which have a longest dimension of less than 200 nm, such that the mixture is optically clear. […] A fully miscible alkyl ketal ester is soluble in another material, such as water, at all proportions from 99:1 to 1:99. A partially miscible alkyl ketal ester is immiscible in another material in proportions from greater than 30 parts of the alkyl ketal ester in 70 parts or less of the other material and miscible in other combinations. A sparingly miscible alkyl ketal ester is immiscible in another material or miscible in another material to the extent of less than 10 parts in 90 parts of the other material. […] Unless stated otherwise, miscibility is assessed at 25° C. […] By “macroscopically uniform,” it is meant that the formulation is uniform when viewed at a length scale of at least 10 micrometers.
In these tests, clear mixtures as observed without magnification from a distance of, e.g., 0.3 meters are considered to be “miscible,” whereas cloudy or phase separated mixtures are considered to be “immiscible.” […]
Three-component mixtures of ethyl-LGK, ethanol, and avobenzone were prepared by mixing the materials at various proportions at room temperature in a vial and shaking. […]
Three-component mixtures of ethyl-LGK, water, and oxybenzone were prepared by mixing the materials at various proportions at room temperature in a vial and shaking. […]
Three-component mixtures of Et-LGK, water, and phenoxyethanol were prepared by mixing the materials at various proportions at room temperature in a vial and shaking.
Three-component mixtures of N,N-diethyl-m-toluamide (DEET), ethyl-LGK, and water were prepared by mixing the materials at various proportions at room temperature in a vial and shaking.

[4] = Solubility of active agents in neat alkyl ketal esters (dissolution, storage at room temperature); details: for % solids dissolved in Et-LGK with heat, no precipitation / % solids in Et-LGK that did not (completely) dissolve or precipitated at room temperature / % solids dissolved in Et-LGK at room temperature, no precipitation: solvent Et-LGK; for % solids dissolved in Et-LGK with heat, no precipitation: dissolved at 35-80° C.; for % solids dissolved in Et-LGK with heat, no precipitation / % solids dissolved in Et-LGK at room temperature, no precipitation: still soluble after storage at room temperature (24 hours to 5 days) where stated; for % solids in Et-LGK that did not (completely) dissolve or precipitated at room temperature: partially dissolved or precipitated on room temperature storage; for % solids in Et-LPK that did not (completely) dissolve or precipitated at room temperature: not completely dissolved or precipitated on room temperature storage; for % solids dissolved in Bu-LGK with heat, no precipitation: dissolved at 50-80° C., still soluble after 24 hours at room temperature where stated
[5] = Solubility of oxidation dye intermediates in hair dye bases (saturated solutions, UV-Vis); details: 27° C., 10 minutes

SMILES: CCCCCCCCCCCCCC(=O)OC(C)C [isopropyl myristate]
clarity of formulation ([2]; 27 parts isopropyl myristate, 9 parts of water, 9 parts of ethyl-LGK and 55 parts of ethanol): clear solution | clarity of formulation ([2]; 30 parts isopropyl myristate, 5 parts water, 5 parts ethyl-LGK and 60 parts ethanol): clear solution | clarity of formulation ([2]; 30 parts isopropyl myristate, 10 parts water, 60 parts ethanol): cloudy | clarity of formulation ([2]; no ketal, emollient level dropped to 22% at the same water level, or to 27% with an increase in ethanol): clear solution

SMILES: COC(=O)c1ccc(O)cc1 [methyl paraben, Methyl paraben]
level at which by itself immiscible in water ([3]; no ketal): 1 % by weight

SMILES: COC(=O)CCC1(C)OCC(CO)O1 (stereo not drawn) [methyl-LGK]
Result (miscibility of ketal with water) ([3]; 50.0% ketal / 50.0% water, no oxybenzone): Miscible | miscible with water ([1]; 25° C. unless stated otherwise): in all proportions

SMILES: CCCCC(CC)COC(=O)C=Cc1ccc(OC)cc1 (stereo not drawn) [octyl methoxycinnamate, Ethylhexyl methoxy cinnamate]
50/50 mixture with Bu-LGK ([4]; room temperature): soluble | 50/50 mixture with Et-LGK ([4]; room temperature where stated): soluble | 50/50 mixture with Et-LPK ([4]; room temperature where stated): soluble

SMILES: COc1ccc(C(=O)c2ccccc2)c(O)c1 [oxybenzone, Oxybenzone]
maximum solubility in propyl-LGK [3]: 10-18% | upper limit of solubility in ethanol [3]: 6.5-10% | concentration achieved in a solution ([3]; Et-AcAc-GK as a cosolvent (with water)): ≤ 29% | concentration achieved in an ethanolic solution ([3]; Et-LEK as a cosolvent): ≤ 30% | concentration achieved in a solution ([3]; Methyl-LGK as a cosolvent (with water)): ≤ 10% | concentration achieved in a solution ([3]; alkyl ketal solvent mixture (Et-LGK and Et-LPK 80/20) as a cosolvent (with water)): ≤ 20% | concentration achieved in a water solution ([3]; ethyl-LGK as a cosolvent): ≤ 13% | concentration achieved in an ethanolic solution ([3]; ethyl-LGK as a cosolvent): ≤ 17% | concentration achieved in an ethanolic solution ([3]; ethyl-LPK as a cosolvent): ≤ 28% | level at which by itself immiscible in ethanol ([3]; no ketal): 10 % by weight | level at which by itself immiscible in water ([3]; no ketal): 1 % by weight | % solids dissolved in LEK with heat, no precipitation ([4]; after 2 weeks at room temperature): 37.5% | % solids that did not dissolve in ACAc-GK ([4]; room temperature): 31.9% | % solids that did not dissolve in methyl-LGK ([4]; room temperature): 14.9% | % solids that did not dissolve in propyl-LGK ([4]; room temperature): 17.8% | % solids dissolved in Bu-LGK at room temperature, no precipitation ([4]; solvent Bu-LGK, still soluble after 24 hours / 1 day at room temperature): 10% | % solids dissolved in Et-LEK at room temperature ([4]; solvent Et-LEK): 28.5% | % solids dissolved in Et-LGK with heat, no precipitation [4]: 20% | % solids in Et-LGK that did not (completely) dissolve or precipitated at room temperature ([4]; insoluble): 25% | % solids dissolved in Et-LGK at room temperature, no precipitation [4]: 10% and 18% | % solids dissolved in Et-LPK with heat, no precipitation ([4]; solvent Et-LPK, dissolved at 50-80° C. or with heat, still soluble after storage at room temperature (24 hours to 5 days)): 30% | % solids in Et-LPK that did not (completely) dissolve or precipitated at room temperature ([4]; solvent Et-LPK, insoluble): 40%

SMILES: Nc1ccc(N)cc1 [p-phenylenediamine]
Average Solubility % wt./wt., column 26B ([5]; hair dye base with 7.00% Et-LGK, pH 8.5): 0.07 % wt./wt. | Average Solubility % wt./wt., column 26A ([5]; hair dye base with 7.00% Et-LGK, pH 10.2): 0.07 % wt./wt. | Average Solubility % wt./wt., column 27B ([5]; hair dye base with 7.00% Et-LPK, pH 8.5): <0.01 % wt./wt. | Average Solubility % wt./wt., second column headed 26A ([5]; hair dye base with 7.00% Et-LPK, pH 10.2): 0 % wt./wt. | % solids dissolved in Bu-LGK with heat, no precipitation ([4]; solvent Bu-LGK): 5% | % solids in Bu-LGK that did not (completely) dissolve ([4]; solvent Bu-LGK, insoluble, dispersion or partially dissolved): 25% | % solids dissolved in Et-LGK with heat, no precipitation [4]: 5% | % solids in Et-LPK that did not (completely) dissolve or precipitated at room temperature ([4]; solvent Et-LPK, insoluble): 5% and 1%

SMILES: OCCOc1ccccc1 [phenoxyethanol, Phenoxyethanol]
amount dissolved / solubilized by Et-LGK/water cosolvent mixtures [3]: ~50 % by weight

SMILES: CCCOC(=O)c1ccc(O)cc1 [propyl paraben, Propyl paraben]
level of miscibility in Et-LGK by itself [3]: ≤ 24% | level at which by itself immiscible in water ([3]; no ketal): < 1 % by weight

SMILES: O=C(O)c1ccccc1O [salicylic acid, Salicylic acid]
% solids dissolved in Bu-LGK with heat, no precipitation ([4]; solvent Bu-LGK): 10% | % solids in Et-LGK that did not (completely) dissolve or precipitated at room temperature ([4]; insoluble): 20.8% | % solids dissolved in Et-LGK at room temperature, no precipitation [4]: 15% | % solids in Et-LPK that did not (completely) dissolve or precipitated at room temperature ([4]; solvent Et-LPK, insoluble): 14.3% | % solids dissolved in Et-LPK at room temperature, no precipitation ([4]; solvent Et-LPK, still soluble after 24 hours / 1 day at room temperature where stated): 11%

Further lines, with some results ahead:

miscible with water ([1]; 25° C. unless stated otherwise): in all proportions
SMILES: CCOC(=O)CCC1(C)OCC(CO)O1 (stereo not drawn) [ethyl-LGK]
dissolves or is miscible with organic compounds to the extent of [1]: at least 20 parts of the organic compound in 80 parts

miscible in water to the extent of ([1]; 25° C. unless stated otherwise): 2.5 parts in 97.5 parts of water
SMILES: CCOC(=O)CCC1(C)OCC(C)O1 (stereo not drawn) [ethyl-LPK]
dissolves or is miscible with organic compounds to the extent of [1]: at least 20 parts of the organic compound in 80 parts

miscible with water to the extent of ([1]; 25° C. unless stated otherwise): 1 part per 99 parts water
SMILES: CCCCOC(=O)CCC1(C)OCC(CO)O1 (stereo not drawn) [n-butyl-LGK]
dissolves or is miscible with organic compounds to the extent of [1]: at least 20 parts of the organic compound in 80 parts

miscible with water to the extent of ([1]; 25° C. unless stated otherwise): about 1 part per 99 parts water
SMILES: CCCCOC(=O)CCC1(C)OCC(C)O1 (stereo not drawn) [n-butyl-LPK]
dissolves or is miscible with organic compounds to the extent of [1]: at least 20 parts of the organic compound in 80 parts

miscible with water to the extent of ([1]; 25° C. unless stated otherwise): 1 part per 99 parts water
SMILES: CCCOC(=O)CCC1(C)OCC(CO)O1 (stereo not drawn) [n-propyl-LGK]
